≈ marks a conversion by molar mass, not a printed value. Where two headings read alike, the source gives them in different places.
Columns and labels:
AR [1] = settings: cited from earlier work; for ToxCast Pathway Model (AUC): AR pathway model, ref Kleinstreuer et al (2017) 10.1021/acs.chemrestox.6b00347
ER [2] = experiment: ToxCast ER assays and final ToxCast call; settings: for Final "true" call (ToxCast) ER: from active ToxCast assays, cytotoxicity, ToxCast Pathway Model and CERAPP Potency Level
From the text: (§1) A rich source of data can be found in the EPA's ToxCast database (US EPA). This contains ED data for ~ 1800 chemicals in more than 700 high-throughput assay endpoints that cover a range of high-level cell responses. The US EPA is running an Endocrine Disruption Screening Program (EDSP), with the aim of prioritising chemicals using high-throughput screening methods and computational toxicology approaches to evaluate thousands of chemicals for ED activities. The OECD framework for ED assessment (OECD [2018]) requires animal testing at higher levels, where relevant in vitro alternatives are missing e.g. for developmental, reproductive, neurological and immune effects. However, such follow-up testing is not possible for the cosmetics industry especially in the EU due to the complete animal testing ban which came into force in March 2013 (EU [2009]). Even for other industries, animal models are not suitable for assessing ED effects due to issues relating to ethics, capacity, speed and relevance (Patisaul et al. [2018]). Therefore, chemicals which cannot be evaluated using in vivo method must be assessed using alternative methods e.g. in silico and in vitro methods listed in Levels 1 and 2 of the framework described in the OECD 150 test guideline (OECD [2018]).
(§2) The performance of different in silico models for ED effects tends to be evaluated on single model for a single effect, such as ER or AR binding, agonism or antagonism (normally by the developer), or a limited number of models using multiple chemicals (Weyrich et al. [2022]). Multi-organisation collaborations have also evaluated multiple models for a specific effect e.g. ER (Mansouri et al. [2016]) and AR (Mansouri et al. [2020]) effects. Therefore, we have conducted a side-by-side comparison of multiple different in silico models covering three pathways in ED, namely ER, AR and aromatase inhibition and compared these with ToxCast-derived final calls, as well as with results from in vitro assays. The efficiency of the in silico models was evaluated as a metric for the ability of the in silico model to generate concrete predictions. […] In vivo data were available for some but not all chemicals; therefore, an evaluation of the performance of the methods was made by comparing the derived overall calls from in silico models with those from the ToxCast database. The final call for each chemical evaluated in the ToxCast assays was made by considering the active-flagged assays and the corresponding cytotoxicity levels, the ToxCast Pathway Model (Browne et al. [2015]) and the CERAPP Potency Level (Mansouri et al. [2016]) for ER effects and the ToxCast Pathway Model (Kleinstreuer et al. [2017]) for AR effects (see Online Resource 1 Supplementary Tables 2, 4 and 6 for the outcome of the ER, AR and aromatase ToxCast assays, additional literature and final calls for each chemical and target).

aromatase [3] = system: aromatase; set-up: method as in US EPA ToxCast; settings: ref US EPA ToxCast; cited from earlier work
H295R cells = experiment: H295R steroidogenesis assay (oestrogen and androgen production); format: cell-based, human; settings: for minimal effective concentration: Homo sapiens, NCI-H295R, 48 h
Description: The in vitro H295R Steroidogenesis Assay is based on the human adenocarcinoma cell line, NCI-H295R, in which the human steroidogenesis pathway is fully functional (OECD 2022). The effect of the test chemical on the production of 17β-estradiol and testosterone is measured using ERα CALUX and AR CALUX technology.
The test chemical was tested in two independent assays, each in triplicate.

ER [4] = system: ER; set-up: method as in US EPA ToxCast; settings: ref US EPA ToxCast, cited from earlier work
AR [5] = experiment: ToxCast AR assays and final ToxCast call; settings: for Final "true" call (ToxCast): AR effects, from active assays, cytotoxicity and pathway model
From the text: as §1, §2

AR [6] = system: AR; set-up: method as in ToxCast; settings: ref ToxCast, cited from earlier work; for ToxCast conclusion from assays result: AR sheet; for ToxCast 1: (Active assays), number of positive assays / assays run: ToxCast AR assays
ER [7] = system: ER; set-up: method as in Mansouri et al. 2016; settings: ref Mansouri et al. 2016; cited from earlier work
ER [8] = system: ER; set-up: method as in Browne, et al (2015); settings: ref Browne, et al (2015), cited from earlier work; for ToxCast Pathway Model (AUC): as agonist where given, value above 0.1 = significant interaction
aromatase [9] = experiment: ToxCast aromatase assays (TOX21_Aromatase_Inhibition) and final ToxCast call; format: cell-based; settings: for ToxCast result: aromatase overall ToxCast call; for Final "true" call (ToxCast) Aromatase inhibition: from ToxCast assays
From the text: as §2
Aromatase represents only one enzyme involved in steroidogenesis (the conversion of androgens to oestrogens); therefore, the aromatase assay detects effects on 17β-oestradiol production only. […] It is a cell-based assay in which MCF-7 cells are incubated with the test chemical for 24 h before measuring aromatase activities indirectly via a luciferase-based reporter endpoint which is dependent on the binding of the oestradiol–ER complex to the oestrogen response element. A decrease in luciferase activity can occur as a result of direct inhibition of aromatase (preventing the production of oestradiol) or by preventing oestradiol from binding to the ER and thus the binding to the oestrogen RE which initiates the production of luciferase (Lui et al. [2008]).

Solubility = format: physicochemical
AR [10] = system: AR; set-up: method as in Park et al. [2021]; settings: ref Park et al. [2021]; cited from earlier work
human (non-selective) ER = experiment: ER radioligand ([3H]estradiol) receptor-binding assay; settings: single-dose screening, 10 µM
Description: The chemicals were tested for their ability to bind to different targets. […] Chemicals were incubated at 10 µM with cells overexpressing ER or AR for 24 h at 4°C, after which, the binding of the radiolabeled ligand ([^3H]estradiol for ER and [^3H]methyltrienolone for AR) was measured by liquid scintillation counting. An increase or decrease higher than 50% were considered to represent significant effects. Four chemicals were tested in additional incubations at several concentrations up to the maximum soluble concentration for IC50 or EC50 determination for the associated target. Receptor binding was calculated as a % inhibition of the binding of a radioactively labeled ligand specific for each target.
Each test chemical was tested in a single assay in duplicate.

[11] = molecular target: T1, human recombinant CYP19A1 (Homo sapiens, UniProt P11511); experiment: Recombinant enzyme aromatase activity inhibition assay; format: biochemical; settings: follow-up dose–response assay
T1 sequence (P11511 1-503): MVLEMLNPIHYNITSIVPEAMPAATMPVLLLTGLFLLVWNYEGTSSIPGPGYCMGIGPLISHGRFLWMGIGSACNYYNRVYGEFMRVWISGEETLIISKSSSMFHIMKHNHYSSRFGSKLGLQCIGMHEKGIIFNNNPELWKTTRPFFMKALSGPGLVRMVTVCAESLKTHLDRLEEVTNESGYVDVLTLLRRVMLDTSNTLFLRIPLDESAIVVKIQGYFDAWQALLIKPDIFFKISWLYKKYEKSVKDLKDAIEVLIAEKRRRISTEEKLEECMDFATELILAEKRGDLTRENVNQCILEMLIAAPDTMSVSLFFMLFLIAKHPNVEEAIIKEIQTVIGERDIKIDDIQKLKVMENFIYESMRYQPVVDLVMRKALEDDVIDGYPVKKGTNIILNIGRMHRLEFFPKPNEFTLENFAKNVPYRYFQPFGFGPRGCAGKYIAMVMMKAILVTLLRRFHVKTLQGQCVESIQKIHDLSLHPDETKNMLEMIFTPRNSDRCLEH
Description: An aromatase inhibition assay was also included in the in vitro assay panel. This enzyme – otherwise known as CYP19A1 - is responsible for converting androgens into estrogens (Blakemore and Naftolin 2016; Bulun 2014); therefore, chemicals that inhibit aromatase activity can lead to reduced estrogen production, which can affect reproductive and developmental processes (Kragie 2002; Tiboni and Ponzano 2016).
The metabolite, estradiol, was measured by time-resolved fluorescence according to the method described previously (Ji et al. 2014). Enzyme inhibition was calculated as a % inhibition of control enzyme activity.

MCF-7 cells = settings: cited from earlier work
[12] = UPITT_HCI_U2OS_AR_TIF2_Nucleoli_Antagonist

For CCCCOC(=O)c1ccccc1C(=O)OCc1ccccc1 [BBP, benzyl butyl phthalate], the “ToxCast Pathway Model (AUC)” value (AR [1]) is given as “AUC = 0, then there is no significant interaction”, the “Final "true" call (ToxCast) ER” value (ER [2]) is given as “Positive for agonism” and the “ToxCast result (ER)” value (ER [2]; overall call from ToxCast data (Supplementary Table 2)) is given as “ER agonist only”. The “ToxCast (Aromatase assays), positive/total” value (aromatase [3]) was 0/2 positive, the minimal effective concentration (H295R cells; read-out: Steroidogenesis Androgenicity LEC) was over 10 µM and the minimal effective concentration (H295R cells; read-out: Steroidogenesis Estrogenicity LEC) was over 10 µM. For the same molecule, the “ToxCast 1: (Active assays), positive/total ER assays” value (ER [4]) was 14/21 positive, the “ToxCast conclusion from assays result” value (ER [4]) was “Endocrine Disruption Potential.Significant Estrogen Receptor activity seen” and the “Final "true" call (ToxCast)” value (AR [5]) was “Inconclusive”. For the same molecule, the “ToxCast conclusion from assays result” value (AR [6]) was “Endocrine Disruption Potential.Significant Estrogen Receptor activity seen”, the “efficacy (assays Comments)” value (AR [6]; TOX21_AR_LUC_MDAKB2_Antagonist_0.5nM_R1881) was “Boarderline: less than 50% efficacy (38.4%)” and the “ToxCast 1: (Active assays), number of positive assays / assays run” value (AR [6]) was 2/14 positive. For the same molecule, the “efficacy (assays Comments)” value (AR [6]; [12]) was “Boarderline: less than 50% efficacy (48.9%)”, the “CERAPP Potency Level” value (ER [7]) was “Very weak antagonist” and the “ToxCast Pathway Model (AUC)” value (ER [8]) was 0.18. The “ToxCast Pathway Model interaction” value (ER [8]) was “significant interaction”, the ToxCast result (aromatase [9]) was “Negative” and the “Final "true" call (ToxCast) Aromatase inhibition” value (aromatase [9]) was “Negative”. The solubility (Solubility) was about 10 µM (≈ 3.12 µg/mL).

For isoeugenol, the “ToxCast Pathway Model (AUC)” value (AR [1]) is listed as “AUC = = 0, then there is no significant interaction”, the “ToxCast Pathway model, interaction with the AR” value (AR [1]; ref Kleinstreuer et al. [2017]) is listed as “insignificant” and the “Final "true" call (ToxCast) ER” value (ER [2]) is listed as “Inconclusive”. For the same molecule, the “ToxCast (Aromatase assays), positive/total” value (aromatase [3]) was 0/2 positive, the “AR antagonism and impact of metabolism” value (AR [10]) was “exhibits AR antagonism which is decreased by metabolism” and the “LEC, oestrogen production” value (H295R cells; increase) was 10 µM. The “ToxCast 1: (Comments), efficacy” value (ER [4]; borderline: less than 50% efficacy) was “Boarderline: less than 50% efficacy”, the “ToxCast 1: (Active assays), positive/total ER assays” value (ER [4]) was 9/19 positive and the “ToxCast conclusion from assays result” value (ER [4]) was “Endocrine Disruption Potential.Significant Estrogen Receptor activity seen”. For the same molecule, the “inhibition of control specific binding to the ER” value (human (non-selective) ER) was “less than -25%”, the “Final "true" call (ToxCast)” value (AR [5]) was “Negative” and the ToxCast result (AR [5]; AR overall call from Supplementary Table 4) was “Negative”. The “Final "true" call (ToxCast) AR” value (AR [5]; from ToxCast assays and ToxCast Pathway Model) was “Negative”, the “ToxCast conclusion from assays result” value (AR [6]) was “Endocrine Disruption Potential.Significant Estrogen Receptor activity seen” and the “ToxCast 1: (Active assays), number of positive assays / assays run” value (AR [6]) was 1/14 positive. The “ToxCast 1: (assays Comments)” value (AR [6]; [12]) was “Only highest concentration above the baseline”, the “efficacy (assays Comments)” value (AR [6]; [12]) was “Boarderline: less than 50% efficacy (48.8%)” and the “CERAPP Potency Level” value (ER [7]) was “Weak agonist/ antagonist”. For the same molecule, the aromatase inhibition outcome [11] was “positive”, the “ToxCast Pathway Model (AUC)” value (ER [8]) was 0.0124 and the “ToxCast Pathway Model interaction” value (ER [8]) was “no significant interaction”. For the same molecule, the ToxCast result (aromatase [9]) was “Negative” and the “Final "true" call (ToxCast) Aromatase inhibition” value (aromatase [9]) was “Negative”.

For C=CCc1ccc(O)c(OC)c1 [eugenol], the “effect on MCF-7 cells” value (MCF-7 cells) is listed as “cytotoxicity”.

From paper PMC10761396, “Evaluation of new alternative methods for the identification of estrogenic, androgenic and steroidogenic effects: a comparative in vitro/in silico study” (Archives of Toxicology, 2023)
